Test results: US7109174B2, “Anticonvulsant derivatives useful for preventing the development of type II diabetes mellitus and syndrome X” (Ortho-McNeil Pharmaceutical, Inc., priority 2000, dated 2006)

Tests used:
[1] = test system: Female ZDF rats; assay: Blood glucose and oral glucose tolerance in female ZDF rats dosed orally for 16 days; format: in vivo; settings: for Plasma Glucose Levels: 16 days, ± SEM
Description: Female ZDF rats were also randomly divided into control and topiramate (30 or 100 mg/kg/day) treated groups, dosed orally for 16 days, and tested for blood glucose levels and oral glucose tolerance following glucose challenge of 2 g/kg. The effect of topiramate was as listed in Table 10 (N=8 rats per treatment group).

[2] = test system: Heterozygous Non-Diabetic Mice; assay: Plasma glucose, triglycerides and body weight in heterozygous non-diabetic littermates, 11 days oral dosage; format: in vivo; settings: for Plasma Glucose % Change / Plasma Triglycerides % Change: versus vehicle; for Change in Body Weight / Plasma Glucose Plasma Conc. / Plasma Triglycerides Plasma Conc.: ± SEM
Description: Six to seven week old female C57 BLK SIJ-m^+/^+ Lepr^db mice (db/db) and heterozygous littermates were purchased from The Jackson Laboratory (Bar Harbor, Me.). Upon arrival the mice were quarantined for 5 days and housed in pairs in shoe-box cages containing ALPHA-dri® bedding (Shepherd Speciality Papers, Inc., Kalamazoo, Mich.). The mice were maintained at an ambient temperature of 21 to 23° C. on a 12 hour-12 hour light-dark schedule and given access to water and food ad libitum. The diet was comprised of NIH (National Institutes of Health) Rat and Mouse/Auto 6F Reduced Fat Diet No. 5K52 (PMI Nutrition International Inc., Brentwood, Mo.).
The vehicle, used as a reference and for test compounds, was 0.5% methylcellulose dissolved in water. The compounds were either fully dissolved or uniformly suspended in the vehicle when administered to the mice.
The db/db mice were randomly separated into five groups of eight, as were the heterozygous littermates. The groups were as follows: one vehicle control group and four groups that each received one of four doses of topiramate (TPM) (10, 30, 100, or 300 mg/kg, respectively). Topiramate or vehicle was administered orally by gavage once a day during the 8th hour of the light portion of the light-dark cycle.
Between 18 and 24 hours after the last dose was administered, the mice were anesthetized with CO2/O2 (70:30) and blood from the retro-orbital sinus puncture was collected into 2 mL heparinized snap-top polypropylene tubes, then placed in ice.
Plasma was separated from blood cells by centrifugation (15 minutes at 1600 g). For samples not assayed immediately, the plasma was transferred into 96-well plates and frozen at −70° C.
Glucose and triglycerides were assayed using standard procedures for blood clinical laboratories. Specifically, the samples were analyzed using an automated Hitachi 717 autoanalyzer (Boehringer Mannheim/Hitachi 717 Autoanalyzer, Boehringer Mannheim Laboratory Systems Division, Indianapolis, Ind.). A statistical analysis of data for the drug-treated groups compared to data for the vehicle group was performed using the one-way analysis of variance (ANOVA) with Dunnett's Multiple Comparisons test.
Following the procedure described above, the effect of topiramate on plasma glucose and triglyceride levels was determined for female diabetic db/db mice and littermates, following 11 days oral dosage, with results as listed in Table 3 and 4. Body weights are in Table 5. The abbreviation N represents the number of animals per study group.

[3] = test system: human epilepsy; settings: clinical trials; cited from earlier work

For CC1(C)O[C@@H]2[C@@H](CO[C@@]3(COS(N)(=O)=O)OC(C)(C)O[C@@H]23)O1 [Topiramate, 2,3:4,5-bis-O-(1-methylethylidene)-β-D-fructopyranose sulfamate], which “Plasma Glucose Levels” value ([1]; 30 mg/kg/day oral, 60 Min after Challenge (glucose 2 g/kg), P < 0.05) is on record?
Its value is 342 ± 32 md/dL.

And the “Plasma Glucose Levels” value ([1]; 30 mg/kg/day oral, 90 Min after Challenge, P < 0.01)?
Its value is 269 ± 32 md/dL.

And the “Plasma Glucose Levels” value ([1]; 30 mg/kg/day oral, 120 Min after Challenge, P < 0.01)?
The value was 206 ± 26 md/dL.

And the “Plasma Glucose Levels” value ([1]; 30 mg/kg/day oral, Time = 0)?
The value was 121 ± 13 md/dL.

What about the “Plasma Glucose Levels” value ([1]; 100 mg/kg/day oral, 60 Min after Challenge (glucose 2 g/kg), P < 0.01) of the same compound?
The value was 333 ± 32 md/dL.

And the “Plasma Glucose Levels” value ([1]; 100 mg/kg/day oral, 90 Min after Challenge, P < 0.01)?
Its value is 242 ± 28 md/dL.

What about the “Plasma Glucose Levels” value ([1]; 100 mg/kg/day oral, 120 Min after Challenge, P < 0.01) of the same compound?
The value was 173 ± 23 md/dL.

And the “Plasma Glucose Levels” value ([1]; 100 mg/kg/day oral, Time = 0)?
The value was 129 ± 15 md/dL.

And the oral glucose tolerance ([1]; at 60, 90 and 120 minutes after glucose challenge)?
Its oral glucose tolerance is “improves”.

And the “Plasma Glucose % Change” value ([2]; 10 mg/kg oral once a day)?
The value was −1.2%.

What about the “Plasma Triglycerides % Change” value ([2]; 10 mg/kg oral once a day) of the same compound?
Its value is −0.3%.

And the “Change in Body Weight” value ([2]; 10 mg/kg oral once a day)?
The value was 0.5 ± 0.2 g.

What about the “Plasma Glucose Plasma Conc.” value ([2]; 10 mg/kg oral once a day) of the same compound?
The value was 145 ± 6 mg/dL.

What about the “Plasma Triglycerides Plasma Conc.” value ([2]; 10 mg/kg oral once a day) of the same compound?
The value was 141 ± 13 mg/dL.

And the “Plasma Glucose % Change” value ([2]; 30 mg/kg oral once a day)?
The value was “+3.8%”.

What about the “Plasma Triglycerides % Change” value ([2]; 30 mg/kg oral once a day) of the same compound?
The value was −17.5%.

And the “Change in Body Weight” value ([2]; 30 mg/kg oral once a day)?
Its value is 0.0 ± 0.3 g.

And the “Plasma Glucose Plasma Conc.” value ([2]; 30 mg/kg oral once a day)?
Its value is 152 ± 6 mg/dL.

And the “Plasma Triglycerides Plasma Conc.” value ([2]; 30 mg/kg oral once a day)?
The value was 116 ± 6 mg/dL.

And the “Plasma Glucose % Change” value ([2]; 100 mg/kg oral once a day)?
Its value is “+0.8%”.

What about the “Plasma Triglycerides % Change” value ([2]; 100 mg/kg oral once a day) of the same compound?
The value was −34.8%.

And the “Change in Body Weight” value ([2]; 100 mg/kg oral once a day)?
The value was 0.2 ± 0.2 g.

And the “Plasma Glucose Plasma Conc.” value ([2]; 100 mg/kg oral once a day)?
Its value is 148 ± 7 mg/dL.

And the “Plasma Triglycerides Plasma Conc.” value ([2]; 100 mg/kg oral once a day, P < 0.01)?
The value was 92 ± 6 mg/dL.

What about the “Plasma Glucose % Change” value ([2]; 300 mg/kg oral once a day) of the same compound?
Its value is −17.2%.

And the “Plasma Triglycerides % Change” value ([2]; 300 mg/kg oral once a day)?
Its value is −1.8%.

What about the “Plasma Triglycerides Plasma Conc.” value ([2]; 300 mg/kg oral once a day) of the same compound?
The value was 138 ± 15 mg/dL.

And the “Plasma Glucose Plasma Conc.” value ([2]; 300 mg/kg oral once a day, P < 0.01)?
The value was 121 ± 7 mg/dL.

And the “Change in Body Weight” value ([2]; 300 mg/kg oral once a day, P < 0.05)?
Its value is -2.2 ± 0.5 g.

What about the “efficacy as adjunctive therapy or monotherapy in simple and complex partial seizures and secondarily generalized seizures” value [3] of the same compound?
The value was “effective”.
